Results reported in paper PMC10531319, “Hemostatically Active Proteinase Produced by Aspergillus ochraceus: Key Specific Properties and Effect on Target Proteins” (International Journal of Molecular Sciences, 2023).
Non-standard residues stand in square brackets, D forms with d. Residues, ends and D or L forms follow the SMILES beside them. *: point of attachment. pNA = O=[N+]([O-])c1ccc(N*)cc1

Test system: T1, A. ochraceus proteinase
T1 construct: native extracellular enzyme from culture liquid; about 35 kDa, non-glycosylated
Test: chromogenic assay, pNA release at […] nm, Lineweaver-Burk and Eadie-Hofstee plots
Type: biochemical, Aspergillus ochraceus
Settings: 0.05 M Tris-HCl pH 8.2, 37 °C; substrate 0.25-2.0 mg/mL

- Km: 3.48 mM
Structure (SMILES): CC(C)C[C@@H](N)C(=O)N[C@@H](CCCCN)C(=O)Nc1ccc([N+](=O)[O-])cc1 [H-D-Leu-Lys-pNA] (H-[dL]-Lys-pNA)
